Molecular target: His-Tagged hOGA (human O-GlcNAcase) (Homo sapiens (Human), UniProt O60502)
Assay: Human O-GlcNAcase enzyme inhibition assay (Example B01)
Format: biochemical
Settings: OGA IC50 (M), OGA enzyme inhibition assay; activity range classes defined in μM

Sequence of His-Tagged hOGA (human O-GlcNAcase) (O60502 whole entry): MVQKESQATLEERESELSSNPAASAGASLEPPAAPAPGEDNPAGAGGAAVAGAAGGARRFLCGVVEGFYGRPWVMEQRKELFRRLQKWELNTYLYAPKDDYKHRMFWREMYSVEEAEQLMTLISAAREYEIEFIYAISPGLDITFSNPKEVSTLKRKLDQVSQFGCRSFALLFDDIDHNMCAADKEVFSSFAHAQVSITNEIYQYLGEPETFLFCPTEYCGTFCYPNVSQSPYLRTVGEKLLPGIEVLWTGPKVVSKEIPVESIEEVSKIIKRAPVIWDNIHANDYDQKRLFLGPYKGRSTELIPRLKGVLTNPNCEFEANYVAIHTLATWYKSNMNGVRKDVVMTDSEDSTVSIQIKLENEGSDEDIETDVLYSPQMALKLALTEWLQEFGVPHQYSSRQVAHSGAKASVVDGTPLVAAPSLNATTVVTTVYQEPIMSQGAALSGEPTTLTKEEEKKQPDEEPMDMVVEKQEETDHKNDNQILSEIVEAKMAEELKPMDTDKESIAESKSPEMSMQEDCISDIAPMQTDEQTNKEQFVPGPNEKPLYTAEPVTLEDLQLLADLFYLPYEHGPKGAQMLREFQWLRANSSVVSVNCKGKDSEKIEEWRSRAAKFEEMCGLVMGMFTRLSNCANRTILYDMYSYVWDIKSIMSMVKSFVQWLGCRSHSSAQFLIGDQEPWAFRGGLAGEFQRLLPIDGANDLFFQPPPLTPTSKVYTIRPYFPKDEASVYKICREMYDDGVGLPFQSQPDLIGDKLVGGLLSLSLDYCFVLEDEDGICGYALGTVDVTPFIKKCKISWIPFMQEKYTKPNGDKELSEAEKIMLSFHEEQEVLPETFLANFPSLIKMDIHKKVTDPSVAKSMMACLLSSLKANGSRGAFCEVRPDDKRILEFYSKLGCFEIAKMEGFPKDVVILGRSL

Compound | IC50 [M]
CC(=O)Nc1cnc(N2CCN(C(C)c3ccc4c(c3)OCO4)CC2)nc1 (racemic) [Example 72, N-(2-(4-(1-(benzo[d][1,3]dioxol-5-yl)ethyl)piperazin-1-yl)pyrimidin-5-yl)acetamide] | < 5e-08
CC(c1ccc2cccnc2c1)N1CCN(c2ncccn2)CC1 (racemic) [Example 91, 7-(1-(4-(pyrimidin-2-yl)piperazin-1-yl)ethyl)quinoline] | 5e-08 to 2e-07

Same assay, conditions: OGA enzyme inhibition assay; activity range classes defined in μM; read-out: OGA IC50

Compound | IC50 [M]
CNC(=O)c1csc(N2CCN(C(C)c3ccc4c(c3)OCCO4)CC2)n1 (racemic) [Example 50, 2-(4-(1-(2,3-dihydrobenzo[b][1,4]dioxin-6-yl)ethyl)piperazin-1-yl)-N-methylthiazole-4-carboxamide] | 5e-08 to 2e-07
CCOC(=O)c1cnc(N2CCN(C(C)c3ccc4c(c3)OCO4)CC2)nc1 (racemic) [Example 51, Ethyl 2-(4-(1-(benzo[d][1,3]dioxol-5-yl)ethyl)piperazin-1-yl)pyrimidine-5-carboxylate] | 5e-08 to 2e-07
CC(c1ccc2c(c1)OCO2)N1CCN(c2ncc(CO)cn2)CC1 (racemic) [Example 52, (2-(4-(1-(benzo[d][1,3]dioxol-5-yl)ethyl)piperazin-1-yl)pyrimidin-5-yl)methanol] | < 5e-08
CC(c1ccc2c(c1)CCO2)N1CCN(c2ncccn2)CC1 (racemic) [Example 53, 2-(4-(1-(2,3-dihydrobenzofuran-5-yl)ethyl)piperazin-1-yl)pyrimidine] | 2e-07 to 1e-06
CC(=O)Nc1nccc(N2CCN(C(C)c3ccc4c(c3)OCO4)CC2)n1 (racemic) [Example 54, N-(4-(4-(1-(Benzo[d][1,3]dioxol-5-yl)ethyl)piperazin-1-yl)pyrimidin-2-yl)acetamide] | 5e-08 to 2e-07
CC(c1ccc2c(c1)OCO2)N1CCN(c2ccc(N)cn2)CC1 (racemic) [Example 58, 6-(4-(1-(Benzo[d][1,3]dioxol-5-yl)ethyl)piperazin-1-yl)pyridin-3-amine] | 5e-08 to 2e-07
CC(c1ccc2c(c1)OCO2)N1CCN(c2ncc(C(=O)N3CCOCC3)s2)CC1 (racemic) [Example 67, (2-(4-(1-(Benzo[d][1,3]dioxol-5-yl)ethyl)piperazin-1-yl)thiazol-5-yl)(morpholino)methanone] | 5e-08 to 2e-07
CC(c1ccc2c(c1)OCO2)N1CCN(c2ncc(N)cn2)CC1 (racemic) [Example 70, 2-(4-(1-(Benzo[d][1,3]dioxol-5-yl)ethyl)piperazin-1-yl)pyrimidin-5-amine] | 2e-07 to 1e-06
CC(c1ccc2c(c1)OCCO2)N1CCN(c2ncc(C(=O)N3CCC(O)CC3)s2)CC1 (racemic) [Example 73, (2-(4-(1-(2,3-Dihydrobenzo[b][1,4]dioxin-6-yl)ethyl)piperazin-1-yl)thiazol-5-yl)(4-hydroxypiperidin-1-yl)methanone] | 5e-08 to 2e-07
CC(=O)Nc1nnc(N2CCN(C(C)c3ccc(F)c(F)c3)CC2)s1 (racemic) [Example 76, N-(5-(4-(1-(3,4-difluorophenyl)ethyl)piperazin-1-yl)-1,3,4-thiadiazol-2-yl)acetamide] | 1e-06 to 1e-05
CC(c1ccc2c(c1)OCO2)N1CCN(c2ncc(CN3CCOCC3)s2)CC1 (racemic) [Example 79, 4-((2-(4-(1-(Benzo[d][1,3]dioxol-5-yl)ethyl)piperazin-1-yl)thiazol-5-yl)methyl)morpholine] | 5e-08 to 2e-07
CC(=O)N(C)Cc1cnc(N2CCN(C(C)c3ccc4c(c3)OCO4)CC2)s1 (racemic) [Example 80, N-((2-(4-(1-(benzo[d][1,3]dioxol-5-yl)ethyl)piperazin-1-yl)thiazol-5-yl)methyl)-N-methylacetamide] | < 5e-08
CC(c1ccc2nccnc2c1)N1CCN(c2ncccn2)CC1 (racemic) [Example 83, 6-(1-(4-(pyrimidin-2-yl)piperazin-1-yl)ethyl)quinoxaline] | 5e-08 to 2e-07
CC(=O)Nc1ncc(N2CCN(C(C)c3ccc4c(c3)OCO4)CC2)s1 (racemic) [Example 86, N-(5-(4-(1-(benzo[d][1,3]dioxol-5-yl)ethyl)piperazin-1-yl)thiazol-2-yl)acetamide] | < 5e-08
CCOC(=O)c1cnc(N2CCN(C(C)c3ccc4nccnc4c3)CC2)s1 (racemic) [Example 90, Ethyl-2-(4-(1-(quinoxalin-6-yl)ethyl)piperazin-1-yl)thiazole-5-carboxylate] | 2e-07 to 1e-06
CC(=O)Nc1cnc(N2CCN(C(C)c3ccc4nccnc4c3)CC2)nc1 (racemic) [Example 93, N-(2-(4-(1-(quinoxalin-6-yl)ethyl)piperazin-1-yl)pyrimidin-5-yl)acetamide] | < 5e-08
CC(c1ccc2nccnc2c1)N1CCN(c2nccc(C(F)(F)F)n2)CC1 (racemic) [Example 94, 6-(1-(4-(4-(trifluoromethyl)pyrimidin-2-yl)piperazin-1-yl)ethyl)quinoxaline] | 2e-07 to 1e-06
CC(=O)Nc1cnc(N2CCN(C(C)c3ccc4c(c3)OCCO4)CC2)nc1 (racemic) [Example 96, N-(2-(4-(1-(2,3-Dihydrobenzo[b][1,4]dioxin-6-yl)ethyl)piperazin-1-yl)pyrimidin-5-yl)acetamide] | < 5e-08

Compound | IC50 [M]
CC(=O)Nc1nnc(N2CCN(C(C)c3ccc4c(c3)OCCO4)CC2)s1 (racemic) [Example 97, N-(5-(4-(1-(2,3-Dihydrobenzo[b][1,4]dioxin-6-yl)ethyl)piperazin-1-yl)-1,3,4-thiadiazol-2-yl)acetamide] | < 5e-08
CNC(=O)c1cnc(N2CCN(C(C)c3ccc4c(c3)OCO4)CC2)nc1 (racemic) [Example 98, 2-(4-(1-(Benzo[d][1,3]dioxol-5-yl)ethyl)piperazin-1-yl)-N-methylpyrimidine-5-carboxamide] | < 5e-08
CC(c1ccc2c(c1)OCO2)N1CCN(c2ncc(C(=O)N(C)C)cn2)CC1 (racemic) [Example 99, 2-(4-(1-(benzo[d][1,3]dioxol-5-yl)ethyl)piperazin-1-yl)-N,N-dimethylpyrimidine-5-carboxamide] | < 5e-08
CC(=O)Nc1nnc(N2CCN(C(C)c3ccc4c(Cl)ccnc4c3)CC2)s1 (racemic) [Example 100, N-(5-(4-(1-(4-chloroquinolin-7-yl)ethyl)piperazin-1-yl)-1,3,4-thiadiazol-2-yl)acetamide] | 2e-07 to 1e-06
CC(=O)Nc1cnc(N2CCN(C(C)c3ccc4c(Cl)ccnc4c3)CC2)nc1 (racemic) [Example 101, N-(2-(4-(1-(4-chloroquinolin-7-yl)ethyl)piperazin-1-yl)pyrimidin-5-yl)acetamide] | 2e-07 to 1e-06
Cc1cnc(N2CCN(C(C)c3ccc4nccnc4c3)CC2)nc1 (racemic) [Example 102, 6-(1-(4-(5-Methylpyrimidin-2-yl)piperazin-1-yl)ethyl)quinoxaline] | 5e-08 to 2e-07
CCc1cnc(N2CCN(C(C)c3ccc4nccnc4c3)CC2)nc1 (racemic) [Example 103, 6-(1-(4-(5-ethylpyrimidin-2-yl)piperazin-1-yl)ethyl)quinoxaline] | 5e-08 to 2e-07
CCC(=O)Nc1nnc(N2CCN(C(C)c3ccc4c(c3)OCO4)CC2)s1 (racemic) [Example 105, N-(5-(4-(1-(benzo[d][1,3]dioxol-5-yl)ethyl)piperazin-1-yl)-1,3,4-thiadiazol-2-yl)propionamide] | < 5e-08
CCCC(=O)Nc1nnc(N2CCN(C(C)c3ccc4c(c3)OCO4)CC2)s1 (racemic) [Example 106, N-(5-(4-(1-(benzo[d][1,3]dioxol-5-yl)ethyl)piperazin-1-yl)-1,3,4-thiadiazol-2-yl)butyramide] | < 5e-08
CC(C)C(=O)Nc1nnc(N2CCN(C(C)c3ccc4c(c3)OCO4)CC2)s1 (racemic) [Example 107, N-(5-(4-(1-(benzo[d][1,3]dioxol-5-yl)ethyl)piperazin-1-yl)-1,3,4-thiadiazol-2-yl)isobutyramide] | < 5e-08
CC(c1ccc2c(c1)OCO2)N1CCN(c2nnc(NC(=O)C3CC3)s2)CC1 (racemic) [Example 108, N-(5-(4-(1-(benzo[d][1,3]dioxol-5-yl)ethyl)piperazin-1-yl)-1,3,4-thiadiazol-2-yl)cyclo propanecarboxamide] | < 5e-08
CNC(=O)c1cnc(N2CCN(C(C)c3ccc4c(c3)OCCO4)CC2)s1 (racemic) [Example 109, 2-(4-(1-(2,3-dihydrobenzo[b][1,4]dioxin-6-yl)ethyl)piperazin-1-yl)-N-methylthiazole-5-carboxamide] | < 5e-08
CC(c1ccc2c(c1)OCO2)N1CCN(c2nnc(NC(=O)c3ccc(Cl)cc3)s2)CC1 (racemic) [Example 110, N-(5-(4-(1-(benzo[d][1,3]dioxol-5-yl)ethyl)piperazin-1-yl)-1,3,4-thiadiazol-2-yl)-4-chlorobenzamide] | 5e-08 to 2e-07
CC(c1ccc2c(c1)OCO2)N1CCN(c2nnc(NCc3ccc(Cl)cc3)s2)CC1 (racemic) [Example 111, 5-(4-(1-(benzo[d][1,3]dioxol-5-yl)ethyl)piperazin-1-yl)-N-(4-chlorobenzyl)-1,3,4-thiadiazol-2-amine] | 5e-08 to 2e-07
CCNc1nnc(N2CCN(C(C)c3ccc4c(c3)OCO4)CC2)s1 (racemic) [Example 112, 5-(4-(1-(benzo[d][1,3]dioxol-5-yl)ethyl)piperazin-1-yl)-N-ethyl-1,3,4-thiadiazol-2-amine] | 5e-08 to 2e-07
CC(c1ccc2c(c1)OCO2)N1CCN(c2ncc3cc[nH]c3n2)CC1 (racemic) [Example 113, 2-(4-(1-(benzo[d][1,3]dioxol-5-yl)ethyl)piperazin-1-yl)-7H-pyrrolo[2,3-d]pyrimidine] | 5e-08 to 2e-07
CC(=O)Nc1nnc(N2CCN(C(C)c3ccc4scnc4c3)CC2)s1 (racemic) [Example 114, N-(5-(4-(1-(benzo[d]thiazol-5-yl)ethyl)piperazin-1-yl)-1,3,4-thiadiazol-2-yl)acetamide] | < 5e-08
CC(=O)Nc1nnc(N2CCN(C(C)c3ccc4cccnc4c3)CC2)s1 (racemic) [Example 115, N-(5-(4-(1-(quinolin-7-yl)ethyl)piperazin-1-yl)-1,3,4-thiadiazol-2-yl)acetamide] | 5e-08 to 2e-07

Same assay, conditions: measured according to Example B01

Compound | OGA inhibitor activity (in words)
CC(c1ccc2c(c1)OCO2)N1CCN(c2ncc(CO)cn2)CC1 (racemic) [Example 52, (2-(4-(1-(benzo[d][1,3]dioxol-5-yl)ethyl)piperazin-1-yl)pyrimidin-5-yl)methanol] | very potent OGA inhibitors
CC(=O)Nc1cnc(N2CCN(C(C)c3ccc4c(c3)OCO4)CC2)nc1 (racemic) [Example 72, N-(2-(4-(1-(benzo[d][1,3]dioxol-5-yl)ethyl)piperazin-1-yl)pyrimidin-5-yl)acetamide] | very potent OGA inhibitors
CC(=O)Nc1nnc(N2CCN(C(C)c3ccc4scnc4c3)CC2)s1 (racemic) [Example 114, N-(5-(4-(1-(benzo[d]thiazol-5-yl)ethyl)piperazin-1-yl)-1,3,4-thiadiazol-2-yl)acetamide] | very potent OGA inhibitors

Source: patent publication US10336775B2 (Asceneuron SA, priority 2014, dated 2019)
